The values below come from PubChem BioAssay (NCI).

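1) Cells in 96-well plates. 2) Compound, 48 h, 5 concentrations. 3) Linear interpolation between surrounding doses. 4) Unreached endpoint = highest concentration. TGI is the concentration that stops growth completely.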

Some test systems named below: DLD-1 colon; DMS 114 small cell lung; HOP-18 NSCLC; XF 498 CNS; RXF-631 renal.
Assay in all cases: inhibition of tumour cell growth, NCI panel, 48 h

With `CC(=O)C(CN(C)C)C(c1ccccc1)c1c(O)c2ccccc2oc1=O` (centres undefined), the TGI in the assay with DLD-1 colon, in the assay on DMS 114 small cell lung, with HOP-18 NSCLC and in the assay on XF 498 CNS was above 100 µM in each case.
Turning to `O=S(=O)(c1ccccc1)n1cc(C[P+](c2ccccc2)(c2ccccc2)c2ccccc2)c2ccccc21`, the TGI amounted to 11 µM in the assay with DLD-1 colon, 14.4 µM in the assay with DMS 114 small cell lung and 12.1 µM in the assay on XF 498 CNS.
As to `NCCCCC(=O)c1cccnc1`, the TGI in the assay with DLD-1 colon, in the assay with DMS 114 small cell lung, in the assay on HOP-18 NSCLC and in the assay on XF 498 CNS was above 100 µM in each case.
On to `c1cncc(O[Si](Oc2cccnc2)(Oc2cccnc2)Oc2cccnc2)c1`, for which the TGI in the assay with DLD-1 colon, in the assay on DMS 114 small cell lung, in the assay on HOP-18 NSCLC, in the assay on RXF-631 renal and in the assay with XF 498 CNS was above 100 µM in each case.
In the case of `C[C@@H]1C2=CC[C@@]3(C)C(CCC3[C@H](C)[C@H]3C[C@@]4(C)O[C@@](c5cccnc5)(O3)OC4(C)C)[C@@H]2C2OC2[C@@]12CCC(=O)O2` (some centres undefined), the TGI is above 100 µM with DLD-1 colon, above 100 µM with DMS 114 small cell lung and 87.1 µM with HOP-18 NSCLC.
In the case of `Cc1cnc2c(c1)C(=O)C1=C(OC(C)(C)CC1O)C2=O` (centres undefined), the TGI was found to be 33.5 µM with DLD-1 colon, 22.4 µM in the assay on DMS 114 small cell lung, 29.3 µM in the assay with HOP-18 NSCLC and 34 µM with XF 498 CNS.
Turning to `CCCCOCc1cc(CN2CCN(C)CC2)c(O)c2ncccc12`, the TGI is above 100 µM with DLD-1 colon; 23.9 µM in the assay on DMS 114 small cell lung; 39.9 µM in the assay with HOP-18 NSCLC; above 100 µM with RXF-631 renal; above 100 µM with XF 498 CNS.
Consider `CN(C)CC1CCCCCCCCCC(CN(C)C)C1=O` (centres undefined), for which the TGI in the assay on DLD-1 colon, in the assay on DMS 114 small cell lung, in the assay with HOP-18 NSCLC, in the assay with RXF-631 renal and with XF 498 CNS was above 100 µM throughout.
Regarding `CC1(C)OCC([C@H]2CC23SCCCS3)O1` (some centres undefined), the TGI with DLD-1 colon, in the assay with DMS 114 small cell lung, in the assay with HOP-18 NSCLC and with XF 498 CNS was above 100 µM in each case.
For the compound `Cc1cc(=O)[nH]c(NNC(C#N)c2c(O)ccc3ccccc23)n1` (centres undefined), the results for the TGI with DLD-1 colon, in the assay on DMS 114 small cell lung and with HOP-18 NSCLC were 24.7 µM, 5.81 µM and above 100 µM, respectively.
Consider `CC1(S)CC2C(CC1Sc1ccccc1)C2(C)C` (centres undefined), for which the TGI with DLD-1 colon, in the assay with DMS 114 small cell lung, in the assay on HOP-18 NSCLC and in the assay with XF 498 CNS was above 100 µM in each case.
